The values below come from patent US9862701B2, “Inhibitors of KRAS G12C mutant proteins” (Araxes Pharma LLC, priority 2014, dated 2018).

For the assay, the target named is T1, KRAS G12C 1-169, his-tagged protein, GDP-loaded (Homo sapiens, UniProt P01116, G12C).
T1 construct: KRAS G12C 1-169, his-tagged protein, GDP-loaded
Briefly: Biochemical assay: covalent binding to KRAS G12C, analyzed by mass spectrometry. Particulars: percent of KRAS G12C protein covalently bound to test compound; 2 μm protein, room temperature. As to the method:
Test compounds were prepared as 10 mM stock solutions in DMSO (Fisher cat# BP-231-100). KRAS G12C 1-169, his-tagged protein, GDP-loaded was diluted to 2 μm in buffer (20 mM Hepes, 150 mM NaCl, 1 mM MgCl2). Compounds were tested for activity as follows:
Compounds were diluted to 50× final test concentration in DMSO in 96-well storage plates. Compound stock solutions were vortexed before use and observed carefully for any sign of precipitation. Dilutions were as follow: • For 100 μM final compound concentration, compounds were diluted to 5000 μM (5 μl 10 mM compound stock+5 μl DMSO and mixed well by pipetting. • For 30 μM final compound concentration, compounds were diluted to 1500 μM (3 μl 10 mM compound stock+17 μl DMSO) and mixed well by pipetting. • For 10 μM final compound concentration, compounds were diluted to 500 μM (2 μl 10 mM compound stock+38 μl DMSO) and mixed well by pipetting. 49 μl of the stock protein solution was added to each well of a 96-well PCR plate (Fisher cat#1423027). 1 μl of the diluted 50× compounds were added to appropriate wells in the PCR plate using 12-channel pipettor. Reactions were mixed carefully and thoroughly by pipetting up/down with a 200 μl multi-channel pipettor. The plate was sealed well with aluminum plate seal, and stored in drawer at room temperature for 24 hrs. 5 μl of 2% formic acid (Fisher cat# A117) in DI H2O was then added to each well followed by mixing with a pipette. The plate was then resealed with aluminum seal and stored on dry ice until analyzed as described below.
The above described assays were analyzed by mass spectrometry according to the following procedure:
The MS instrument is set to positive polarity, 2 GHz resolution, and low mass (1700) mode and allowed to equilibrate for 30 minutes. The instrument is then calibrated, switched to acquisition mode and the appropriate method loaded.
After another 30 minute equilibration time, a blank batch (i.e., buffer) is run to ensure equipment is operating properly. The samples are thawed at 37° C. for 10 minutes, briefly centrifuged, and transfer to the bench top. Wells A1 and H12 are spiked with 1 uL 500 uM internal standard peptide, and the plates centrifuged at 2000×g for 5 minutes. The method is then run and masses of each individual well recorded.
The masses (for which integration data is desired) for each well are pasted into the platemap and exported from the analysis. Masses for the internal standards are exported as well. The data at 50 ppm is extracted for the +19 charge state, and identity of well A1 is assigned using the internal standard spike and integrated. Peak data is exported as a TOF list and the above steps are repeated individually, for the +20, 21, 22, 23, 24, and 25 charge states.
As for `C=CC(=O)N1CCN(Cc2ccc(-c3cc(O)ccc3Cl)cc2)CC1` [Compound 17, 1-(4-((2′-chloro-5′-hydroxybiphenyl-4-yl)methyl)piperazin-1-yl)prop-2-en-1-one], the Binding % result is “++ (indicates binding activity greater than 10% and up to 20%)”.
The entry for `C=CC(=O)N1CCN(Cc2ccc(-c3ccccc3C(F)(F)F)cc2)CC1` [Compound 15, 1-(4-((2′-(trifluoromethyl)biphenyl-4-yl)methyl)piperazin-1-yl)prop-2-en-1-one] is “+ (indicates binding activity from 5% to 10%)”; for `C=CC(=O)N1CCC(n2ccc(-c3cc(O)ccc3Cl)cc2=O)CC1` [Compound 6, 1-(1-acryloylpiperidin-4-yl)-4-(2-chloro-5-hydroxyphenyl)pyridin-2(1H)-one] it is “++ (indicates binding activity greater than 10% and up to 20%)”.
To `C=CC(=O)N1CCN(c2ccc(-c3cc(O)ccc3Cl)cc2C(N)=O)CC1` [Compound 14, 4-(4-acryloylpiperazin-1-yl)-2′-chloro-5′-hydroxybiphenyl-3-carboxamide] belongs “+++ (indicates binding activity greater than 20% and up to 30%)”; to `C=CC(=O)N1CCN(c2ncc(-c3cc(O)ccc3Cl)cn2)CC1` [Compound 7, 1-(4-(5-(2-chloro-5-hydroxyphenyl)pyrimidin-2-yl)piperazin-1-yl)prop-2-en-1-one], “++ (indicates binding activity greater than 10% and up to 20%)”.
Take `C=CC(=O)N1CCN(c2ccc(-c3cc(O)cc(Cl)c3)cc2)CC1` [Compound 2, 1-(4-(3′-chloro-5′-hydroxybiphenyl-4-yl)piperazin-1-yl)prop-2-en-1-one]: the Binding % entry was “++ (indicates binding activity greater than 10% and up to 20%)”.
As for `C=CC(=O)N1CCN(Cc2ccc(-c3cc(O)ccc3Cl)cc2O)CC1` [Compound 20, 1-(4-((2′-chloro-3,5′-dihydroxybiphenyl-4-yl)methyl)piperazin-1-yl)prop-2-en-1-one], the Binding % entry was “+++ (indicates binding activity greater than 20% and up to 30%)”.
The entry for `C=CC(=O)N1CCN(c2ccc(-c3cc(O)ccc3Cl)cc2C#N)CC1` [Compound 9, 4-(4-acryloylpiperazin-1-yl)-2′-chloro-5′-hydroxybiphenyl-3-carbonitrile] is “++++ (indicates binding activity greater than 30%)”; for `C=CC(=O)N1CCN(Cc2ccc(-c3c(C)ccc4[nH]ncc34)cc2)CC1` [Compound 16, 1-(4-(4-(5-methyl-1H-indazol-4-yl)benzyl)piperazin-1-yl)prop-2-en-1-one] it is “+ (indicates binding activity from 5% to 10%)”.
Turning to `C=CC(=O)N1CCN(Cc2ccc(-c3ccccc3C(F)(F)F)cc2O)CC1` [Compound 21, 1-(4-((3-hydroxy-2′-(trifluoromethyl)biphenyl-4-yl)methyl)piperazin-1-yl)prop-2-en-1-one], the Binding % result was “+ (indicates binding activity from 5% to 10%)”.
Turning to `C=CC(=O)N1CCN(c2ccc(-c3c(C)ccc4[nH]ncc34)c3cn[nH]c23)CC1` [Compound 26, 1-(4-(5′-methyl-1H,1′H-4,4′-biindazol-7-yl)piperazin-1-yl)prop-2-en-1-one], the Binding % entry is “+ (indicates binding activity from 5% to 10%)”.
To `C=CC(=O)N1CCN(c2ccc(-c3c(C)ccc4[nH]ncc34)cc2)CC1` [Compound 22, 1-(4-(4-(5-methyl-1H-indazol-4-yl)phenyl)piperazin-1-yl)prop-2-en-1-one] belongs “+ (indicates binding activity from 5% to 10%)”.
Consider `C=CC(=O)N1CCN(c2ccc(-c3c(O)cccc3F)cc2)CC1` [Compound 25, 1-(4-(2′-fluoro-6′-hydroxybiphenyl-4-yl)piperazin-1-yl)prop-2-en-1-one], for which the Binding % entry is listed as “+ (indicates binding activity from 5% to 10%)”.
For the compound `C=CC(=O)N1CCN(c2ccc(-c3cc(O)ccc3CC)cc2)CC1` [Compound 5, 1-(4-(2′-ethyl-5′-hydroxybiphenyl-4-yl)piperazin-1-yl)prop-2-en-1-one], the Binding % entry is listed as “++++ (indicates binding activity greater than 30%)”.
Consider `C=CC(=O)N1CCC(Cn2ccc(-c3ccccc3C(F)(F)F)cc2=O)CC1` [Compound 13, 1-((1-acryloylpiperidin-4-yl)methyl)-4-(2-(trifluoromethyl)phenyl) pyridin-2(1H)-one], for which the Binding % entry was “+ (indicates binding activity from 5% to 10%)”.
Consider `C=CC(=O)N1CCN(c2ccc(-c3cc(OC)cc(Cl)c3Cl)cc2)CC1` [Compound 3, 1-(4-(2′,3′-dichloro-5′-methoxybiphenyl-4-yl)piperazin-1-yl)prop-2-en-1-one], for which the Binding % result is listed as “+ (indicates binding activity from 5% to 10%)”.
To `C=CC(=O)N1CCN(Cc2ccc(-c3cc(O)ccc3Cl)c(Cl)c2)CC1` [Compound 18, 1-(4-((2,2′-dichloro-5′-hydroxybiphenyl-4-yl)methyl)piperazin-1-yl)prop-2-en-1-one] belongs “++ (indicates binding activity greater than 10% and up to 20%)”; to `C=CC(=O)N1CCN(c2ccc(-c3cc(O)ccc3Cl)cc2)CC1` [Compound 1, 1-(4-(2′-chloro-5′-hydroxybiphenyl-4-yl)piperazin-1-yl)prop-2-en-1-one], “++++ (indicates binding activity greater than 30%)”; to `C=CC(=O)N1CCN(c2ccc(-c3ccc(O)cc3Cl)cc2)CC1` [Compound 23, 1-(4-(2′-chloro-4′-hydroxybiphenyl-4-yl)piperazin-1-yl)prop-2-en-1-one], “+ (indicates binding activity from 5% to 10%)”.
The entry for `C=CC(=O)N1CCN(c2ccc(-c3cc(O)ccc3Cl)c(C(N)=O)c2)CC1` [Compound 10, 4-(4-acryloylpiperazin-1-yl)-2′-chloro-5′-hydroxybiphenyl-2-carboxamide] is “+++ (indicates binding activity greater than 20% and up to 30%)”; for `C=CC(=O)N1CCN(c2ccc(-c3cc(O)ccc3Cl)c(C#N)c2)CC1` [Compound 11, 4-(4-acryloylpiperazin-1-yl)-2′-chloro-5′-hydroxybiphenyl-2-carbonitrile] it is “+++ (indicates binding activity greater than 20% and up to 30%)”.
The entry for `C=CC(=O)N1CCC(Cn2ccc(-c3cc(O)ccc3Cl)cc2=O)CC1` [Compound 12, 1-((1-acryloylpiperidin-4-yl)methyl)-4-(2-chloro-5-hydroxyphenyl)pyridin-2(1H)-one] is “++ (indicates binding activity greater than 10% and up to 20%)”.
For the compound `C=CC(=O)N1CCN(c2ccc(-c3cc(O)ccc3Cl)cn2)CC1` [Compound 8, 1-(4-(5-(2-chloro-5-hydroxyphenyl)pyridin-2-yl)piperazin-1-yl)prop-2-en-1-one], the Binding % result is “++ (indicates binding activity greater than 10% and up to 20%)”.
The entry for `C=CC(=O)N1CCN(Cc2ccc(-c3c(C)ccc4[nH]ncc34)c(Cl)c2)CC1` [Compound 19, 1-(4-(3-chloro-4-(5-methyl-1H-indazol-4-yl)benzyl)piperazin-1-yl)prop-2-en-1-one] is “++ (indicates binding activity greater than 10% and up to 20%)”.
As to `C=CC(=O)N1CCN(c2ccc(-c3cc(O)ccc3Cl)c3cn[nH]c23)CC1` [Compound 24, 1-(4-(4-(2-chloro-5-hydroxyphenyl)-1H-indazol-7-yl)piperazin-1-yl)prop-2-en-1-one], the Binding % entry is given as “++++ (indicates binding activity greater than 30%)”.
The entry for `C=CC(=O)N1CCN(c2ccc(-c3cc(O)cc(Cl)c3Cl)cc2)CC1` [Compound 4, 1-(4-(2′,3′-dichloro-5′-hydroxybiphenyl-4-yl)piperazin-1-yl)prop-2-en-1-one] is “+++ (indicates binding activity greater than 20% and up to 30%)”.
